Laboratory results from paper PMC9959553, “Promising Antifungal Molecules against Mucormycosis Agents Identified from Pandemic Response Box®: In Vitro and In Silico Analyses” (Journal of Fungi, 2023).
Values after ≈ are worked out from the molar mass of the structure shown. Where two headings read alike, the source gives them in different places.

Tests used:
R. oryzae UCP1295 [1] = test: Screening of the Pandemic Response Box library at 5 µM; format: cell-based, Rhizopus oryzae; conditions: for % of growth inhibition, Mean: 48 h; for inhibition at 5 µM: Rhizopus arrhizus, UCP1295, 48 h
In short: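 Compounds at 5 μM in RPMI 1640 with 2% glucose and MOPS (0.165 mol/L, pH 7.2), with conidia at 2 × 10^5/mL, incubated 48 h at 37 °C in 5% CO2. Growth read by OD at 600 nm; hits defined as ≥60% inhibition. Posaconazole (5 μM) and 1% DMSO as controls.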

R. oryzae [2] = test: Antifungal susceptibility testing (broth microdilution, MIC and MFC); format: cell-based, Rhizopus oryzae; conditions: Rhizopus arrhizus, 48 h
Method: (§1) The susceptibility of the Rhizopus species to MMV396785 (alexidine), MMV1580844, MMV642550 and MMV019724 was determined using the broth microdilution method, according to EUCAST protocols, with modifications. Posaconazole and amphotericin B were also used as reference antifungal drugs because they are commonly used for the treatment of mucormycosis. […] A standardized suspension of conidia (2 × 10^5/mL) was added to the wells and incubated for 48 h at 37 °C, in a 5% CO2 atmosphere. Fungal growth was analyzed via spectrophotometry readings at 600 nm and cell viability was assessed using the XTT reduction assay. Minimum inhibitory concentration (MIC) of each compound was defined as the lowest concentration that inhibits 50% of fungal growth, because these fungi are highly resistant to antifungal drugs and a reduction in half of their growth is relevant. […] MFC values were defined as the lowest drug concentration able to arrest fungal growth.

R. oryzae [3] = test: Antifungal drug synergy assay, Bliss independence model; format: cell-based, Rhizopus oryzae
Method: (§2) Synergistic interactions were evaluated using the checkerboard method according to EUCAST guidelines (EUCAST 2008). R. oryzae conidia (2 × 10^5/mL) were grown in 96-well plates containing supplemented RPMI in the presence of the following selected compounds: […] An inhibition of at least 50% was defined as the cut-off for minimum inhibitory concentration (MIC). Interactions were determined by the fractional inhibitory concentration index (FICI), which was calculated using the following formula: (MIC combined/MIC drug A alone) + (MIC combined/MIC drug B alone). […] The Bliss independence model calculation was performed according to […] colleagues and Zhao and colleagues. The following formula was used to assess drug interaction: […] The results were classified as follows: synergistic effect when Eobs > Eexp; indifference when Eobs = Eexp; antagonistic effect when Eobs < Eexp.

R. microsporus = test: Antifungal susceptibility testing (broth microdilution, MIC and MFC); format: cell-based, Rhizopus microsporus var. microsporus; conditions: Rhizopus microsporus, 48 h
Method: as §1

[4] = system: R. oryzae, R. microsporus and R. stolonifer; test: Antifungal susceptibility testing, values stated over the three species; format: cell-based; conditions: over the three Rhizopus species
Method: as §1

R. stolonifer = test: Antifungal susceptibility testing (broth microdilution, MIC and MFC); format: cell-based, Rhizopus stolonifer; conditions: Rhizopus stolonifer, 48 h
Method: as §1

R. oryzae UCP1295 [5] = test: Antifungal drug synergy assay, checkerboard method (FICI); format: cell-based, Rhizopus oryzae; conditions: Rhizopus arrhizus, UCP1295, 48 h; drug alone; read-out: MIC50 Alone
Method: as §2

[6] = Table S1, mean of the four values
[7] = lowest concentration that inhibits 50% of fungal growth

SMILES	% of growth inhibition, Mean (R. oryzae UCP1295 [1]; [6])	further results
COc1ccc(C(C)(C)C)cc1NC(=O)C(=O)c1ccc(OCCN2CCOCC2)c2ccccc12 [MMV1782209]	-5.8%	
Nc1nc2c(ncn2/C=C2/CC2(CO)CO)c(=O)[nH]1 [MMV1782210]	-16.4%	
C[C@@H](NC(=O)c1cccc(-c2cnc(-c3cc4ccccc4cn3)[nH]2)c1)c1ccc(F)cc1 [MMV1782211]	32.8%	
CC(C)(C)c1ccc(C(=O)NC(=O)N2CCCc3ccccc32)cc1 [MMV1782212]	-4.9%	
O=C(CSc1nnc(Br)n1-c1ccc(C2CC2)c2ccccc12)Nc1ccc(C(=O)O)cc1Cl [MMV1782213]	-4.3%	
C=CCN(C(=O)OCc1ccc([N+](=O)[O-])cc1)C1CCN(CC[C@](C)(CN(C)S(=O)(=O)c2ccccc2)c2ccccc2)CC1 [MMV1782214]	14.4%	
O=P(O)(O)C(CCCc1cccc(Oc2ccccc2)c1)S(=O)(=O)O (centres unmarked) [MMV1782215]	-6.1%	
CCCNc1ccc(S(=O)(=O)Nc2cc(C)on2)cc1 [MMV1782216]	-18.8%	
Cc1cc(NS(=O)(=O)c2ccc(-c3ccc(F)cc3F)cc2)no1 [MMV1782217]	-29.1%	
O=C(NC(=O)N1CCCc2ccccc21)c1ccc(Cl)cc1Cl [MMV1782218]	-21.0%	
CC(C)CCN1C(=O)C(C2=NS(=O)(=O)c3cc(NS(C)(=O)=O)ccc3N2)=C(O)[C@@H]2[C@H]3CC[C@H](C3)[C@@H]21 [MMV1782220]	6.0%	
C[C@H](c1cccc2ccccc12)N(C)Cc1ccccc1 [MMV1782221]	-14.5%	
CN1c2ccc(Cl)cc2N(c2ccccc2)C(=O)c2cn(Cc3ccc(CN4CCOCC4)cc3)nc21 [MMV1782222]	3.4%	
CN(C)c1[nH]c(=O)ncc1F [MMV1782223]	-26.3%	
N#C/C(=C1/SC[C@@H](c2ccc(Cl)cc2Cl)S1)n1ccnc1 [MMV1782224]	-14.5%	
O=C(Nc1[nH]c(=O)ncc1F)c1ccccc1 [MMV1782225]	-27.6%	
OB1OCc2c1ccc(Cl)c2F [MMV1782226]	-20.0%	

SMILES	% of growth inhibition, Mean (R. oryzae UCP1295 [1]; [6])	further results
O=C(NNC(=S)Nc1ccc(Cl)cc1)c1ccncc1 [MMV1782227]	-24.0%	
Cc1cc(CCOc2c(C)cc(-c3nnn(C)n3)cc2C)on1 [MMV1782349]	-3.0%	
CC(C)Oc1ccc(-n2cnc3cc(/C=C\c4ccc(C(C)(C)O)cc4)ccc32)cc1 [MMV1782350]	26.5%	
O=C(NC(=O)N1CCCc2ccccc21)c1cccc(Cl)c1 [MMV1782351]	-17.9%	
O=C(O)COc1cccc2c1CC[C@](O)(COC(=O)N(c1ccccc1)c1ccccc1)C2 [MMV1782352]	-13.6%	
CC(C)(C)NC(=O)[C@@H]1CN(Cc2cnc3occc3c2)CCN1C[C@@H](O)C[C@@H](Cc1ccccc1)C(=O)N[C@H]1c2ccccc2C[C@H]1O [MMV1782353]	-11.2%	
Cc1cc(-c2ccccc2)c(C(=O)C(=O)Nc2ccc(N3CCN(c4ncc(F)cn4)CC3)cc2)n1C [MMV1782354]	-38.2%	
Nc1nc2c(Cc3cccnc3)c[nH]c2c(=O)[nH]1 [MMV1782355]	-12.7%	
CN(O)C(=O)c1cc2c(CN3CCC[C@H]3C(N)=O)cn(Cc3ccc(F)cc3)c2cn1 [MMV1782386]	-4.5%	
COC(=O)Nc1nc2c(C)cccc2[nH]1 [MMV1782387]	-30.6%	
CNc1nc(=O)[nH]cc1F [MMV1782388]	-27.5%	
Cc1cc(C)n(O)c(=O)c1 [MMV1782389]	-20.7%	
Cc1cc(C)n2nc(C(=O)NS(=O)(=O)c3c(C)cccc3OC(F)(F)F)nc2n1 [MMV1782402]	-19.8%	
CCNC(=O)Nc1cn2c(-c3ncc(CC)cn3)cc(-c3cccnc3)cc2n1 [MMV1782403]	-42.7%	
O=S(=O)(NCB(O)O)c1ccc(-c2nnn[nH]2)cc1C(F)(F)F [MMV1782411]	-7.7%	
NC(=O)C(c1ccccc1)(c1ccccc1)[C@H]1CCCN(CCc2ccc3c(c2)CCO3)C1 [MMV1782412]	-1.5%	
CC[C@@H]([C@H](C)O)n1ncn(-c2ccc(N3CCN(c4ccc(OC[C@@H]5CO[C@@](Cn6cncn6)(c6ccc(F)cc6F)C5)cc4)CC3)cc2)c1=O [Posaconazole, reference compound]		MIC50 (R. oryzae [2]; [7]): 1.25 µM (≈ 0.876 µg/mL); MFC (R. oryzae [2]; subculture in drug-free medium): > 20 µM; Efficacy of Drugs Alone (% of Inhibition), MIC50 (R. oryzae [3]; at MIC50): 63.4 % of Inhibition; Efficacy of Drugs Alone (% of Inhibition), ½ MIC50 (R. oryzae [3]; at ½ MIC50): 6.5 % of Inhibition; MIC50 (R. microsporus; [7]): 2.5 µM (≈ 1.75 µg/mL); MFC (R. microsporus; subculture in drug-free medium): > 20 µM; MFC [4]: > 20 µM; MIC [4]: 0.63 to 2.5 µM (≈ 0.441 to 1.75 µg/mL); MIC50 (R. stolonifer; [7]): 0.63 µM (≈ 0.441 µg/mL); MFC (R. stolonifer; subculture in drug-free medium): > 20 µM; MIC (R. oryzae UCP1295 [5]): 1.25 µM; inhibition at 5 µM (R. oryzae UCP1295 [1]; Table S1, mean of the four values, read-out: % of growth inhibition, Mean): 56.3%; inhibition at 5 µM (R. oryzae UCP1295 [1]; optical density 600 nm, read-out: Growth Inhibition): 56%; Viability Inhibition (XTT) (R. oryzae UCP1295 [1]; XTT reduction): 73%
